The values below come from PubChem BioAssay (NCI).

Test systems include OVCAR-3 ovarian; MALME-3M melanoma; MDA-MB-231 breast; A549 NSCLC; SK-MEL-5 melanoma; NCI-H226 lung; HCT-116 colon; SK-MEL-2 melanoma; A498 renal; OVCAR-5 ovarian.
Holding throughout (experiment): NCI-60 cell line screen, 48 h

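Exposure lasted 48 hours, with cells grown in 96-well plates and compounds tested at five concentrations. At the GI50, growth is halved. TGI marks complete inhibition of growth.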 Where only a bound is given, the exact number is not on record here.

As for `CC/C=C\C[C@H]1C/C=C2/C(=O)C(Cl)=C[C@@H]2C/C=C\CCCC(=O)O1`, the GI50 with OVCAR-3 ovarian is 153 nM; with MALME-3M melanoma, 398 nM; with MDA-MB-231 breast it was 733 nM; in the assay on A549 NSCLC it was 748 nM; with SK-MEL-5 melanoma, 379 nM; in the assay on NCI-H226 lung, 524 nM. Further, the GI50 with HCT-116 colon is 205 nM; in the assay on SK-MEL-2 melanoma, 453 nM; with A498 renal, 560 nM; in the assay with OVCAR-5 ovarian, 592 nM. The TGI with OVCAR-3 ovarian is 677 nM; in the assay with MALME-3M melanoma it was 1220 nM; in the assay with MDA-MB-231 breast, 4610 nM; in the assay on A549 NSCLC, 2750 nM; with SK-MEL-5 melanoma, 759 nM; in the assay on NCI-H226 lung it was 1560 nM. Moreover, the TGI with HCT-116 colon was 859 nM; in the assay on SK-MEL-2 melanoma it was 1130 nM; in the assay on A498 renal it was 1430 nM; with OVCAR-5 ovarian, 1840 nM.
On to `C(=N\Nc1ccc2ccccc2n1)/c1ccccn1`, for which the GI50 in the assay with OVCAR-3 ovarian is 351 nM; with MALME-3M melanoma, 1350 nM; in the assay with MDA-MB-231 breast it was 695 nM; in the assay with A549 NSCLC, 563 nM; in the assay with SK-MEL-5 melanoma, 694 nM; in the assay on NCI-H226 lung, 508 nM. In addition, the GI50 in the assay with HCT-116 colon is 368 nM; in the assay with SK-MEL-2 melanoma, 511 nM; in the assay on A498 renal, 561 nM; in the assay with OVCAR-5 ovarian, 596 nM. Also, the TGI in the assay with MALME-3M melanoma is 8340 nM; in the assay on MDA-MB-231 breast, above 100000 nM; with A549 NSCLC, above 100000 nM; with SK-MEL-5 melanoma, 3670 nM; in the assay on NCI-H226 lung, 19000 nM; in the assay with HCT-116 colon, 13900 nM. The TGI with SK-MEL-2 melanoma was above 100000 nM; in the assay on A498 renal, 15400 nM; in the assay with OVCAR-5 ovarian it was above 100000 nM.
As to `NS(=O)(=O)c1ccc(N=Nc2c[nH]c(=O)c(O)c2)cc1`, the TGI with OVCAR-3 ovarian was 82600 nM; in the assay with MALME-3M melanoma it was 82400 nM; in the assay with MDA-MB-231 breast, above 100000 nM; in the assay with A549 NSCLC it was above 100000 nM; in the assay on SK-MEL-5 melanoma it was above 100000 nM; in the assay on NCI-H226 lung, above 100000 nM. Further, the TGI in the assay on HCT-116 colon, in the assay on SK-MEL-2 melanoma, in the assay with A498 renal and in the assay with OVCAR-5 ovarian was above 100000 nM in each case.
Regarding `CN1CCN(c2ccc(NC3=CC(=O)c4ncncc4C3=O)cc2)CC1`, the GI50 was 313 nM in the assay with OVCAR-3 ovarian; 268 nM in the assay on MALME-3M melanoma; 250 nM in the assay on MDA-MB-231 breast; 405 nM with A549 NSCLC; 302 nM with SK-MEL-5 melanoma; 1510 nM with NCI-H226 lung. The GI50 with HCT-116 colon was 229 nM; in the assay with SK-MEL-2 melanoma, 1540 nM; with A498 renal it was 1420 nM; with OVCAR-5 ovarian, 285 nM. Also, the TGI turned out to be 713 nM in the assay on MALME-3M melanoma; 766 nM in the assay with MDA-MB-231 breast; 2300 nM in the assay with A549 NSCLC; 871 nM with SK-MEL-5 melanoma; 3470 nM in the assay with NCI-H226 lung; 545 nM in the assay on HCT-116 colon. Also, the TGI with SK-MEL-2 melanoma stood at 3450 nM; in the assay on A498 renal, 2800 nM; in the assay on OVCAR-5 ovarian it was 801 nM.
Regarding `CC1=C[C@@H]2c3c(c(O)c(O)c4oc5cc(O)cc(O)c5c(=O)c34)[C@@H](c3cc(O)c(O)c4oc5cc(O)cc(O)c5c(=O)c34)[C@@H]2C(C)(C)C1`, the GI50 is 3330 nM in the assay on OVCAR-3 ovarian; 8530 nM with MALME-3M melanoma; 4190 nM in the assay on MDA-MB-231 breast; 4120 nM with A549 NSCLC; 2560 nM in the assay with SK-MEL-5 melanoma; 3820 nM in the assay on NCI-H226 lung. Further, the GI50 in the assay with HCT-116 colon is 2700 nM; in the assay with SK-MEL-2 melanoma, 5990 nM; in the assay on A498 renal, 9070 nM; in the assay with OVCAR-5 ovarian it was 7830 nM. For the same compound, the TGI in the assay with OVCAR-3 ovarian came out at 13400 nM; with MALME-3M melanoma it was 25200 nM; with MDA-MB-231 breast it was 20500 nM; with A549 NSCLC, 17600 nM; in the assay with SK-MEL-5 melanoma, 10500 nM; in the assay with NCI-H226 lung, 28400 nM. Also, the TGI in the assay with HCT-116 colon turned out to be 9850 nM; in the assay on SK-MEL-2 melanoma, 21000 nM; with A498 renal, 21000 nM; in the assay with OVCAR-5 ovarian, 18200 nM.
On to `CSc1nc(SC)c2c(C)cn(COCCOC(=O)c3ccccc3)c2n1`, for which the TGI in the assay on OVCAR-3 ovarian, in the assay on MALME-3M melanoma, in the assay on MDA-MB-231 breast, in the assay on A549 NSCLC, in the assay with SK-MEL-5 melanoma and in the assay on NCI-H226 lung was above 100000 nM in each case. The TGI in the assay with HCT-116 colon, in the assay with SK-MEL-2 melanoma, in the assay on A498 renal and in the assay with OVCAR-5 ovarian was above 100000 nM in each case.
Regarding `COc1ccc(-c2[nH]ncc2Nc2cc(OC)c(OC)c(OC)c2)cc1`, the GI50 with OVCAR-3 ovarian is 962 nM; in the assay with MALME-3M melanoma, 2040 nM; in the assay with MDA-MB-231 breast it was 3340 nM; with A549 NSCLC it was 3390 nM; in the assay with SK-MEL-5 melanoma it was 1340 nM; in the assay with NCI-H226 lung, 29100 nM. The GI50 with HCT-116 colon is 1040 nM; in the assay on SK-MEL-2 melanoma, 10300 nM; in the assay with A498 renal it was 2980 nM; in the assay on OVCAR-5 ovarian, 5260 nM. In addition, the TGI in the assay on OVCAR-3 ovarian was 3690 nM; with MALME-3M melanoma, above 26100 nM; with MDA-MB-231 breast it was above 100000 nM; in the assay with A549 NSCLC, above 100000 nM; with SK-MEL-5 melanoma, 23000 nM; in the assay with NCI-H226 lung, above 100000 nM. Also, the TGI in the assay with HCT-116 colon is above 43200 nM; in the assay with SK-MEL-2 melanoma, above 100000 nM; with A498 renal, above 57400 nM; with OVCAR-5 ovarian, above 100000 nM.
Consider `COc1cc(-c2ccc[nH]2)[nH]c1/C=C1\N=C(C)C(CC(=O)OCC(C)(C)C)=C1C`, for which the GI50 in the assay on OVCAR-3 ovarian is 254 nM; in the assay on MALME-3M melanoma, 400 nM; in the assay on MDA-MB-231 breast, 104 nM; in the assay on A549 NSCLC, 244 nM; in the assay on SK-MEL-5 melanoma, 137 nM; in the assay on NCI-H226 lung, 176 nM. Moreover, the GI50 is 181 nM in the assay with HCT-116 colon, 157 nM in the assay on SK-MEL-2 melanoma, 163 nM with A498 renal and 501 nM with OVCAR-5 ovarian. Besides, the TGI in the assay with OVCAR-3 ovarian amounted to 1150 nM; with MALME-3M melanoma it was 1690 nM; with MDA-MB-231 breast it was 1530 nM; in the assay with A549 NSCLC, 1240 nM; with SK-MEL-5 melanoma, 279 nM; in the assay with NCI-H226 lung, 736 nM. The TGI in the assay on HCT-116 colon came out at 1150 nM; in the assay with SK-MEL-2 melanoma it was 415 nM; in the assay with A498 renal it was 867 nM; with OVCAR-5 ovarian it was 2310 nM.
